Assay results: ChEMBL document CHEMBL3390846, “Synthesis and biological activity of new pyridone diaryl ether non-nucleoside inhibitors of HIV-1 reverse transcriptase” (Medchemcomm, 2010)

What was measured:
[1] = system: Human immunodeficiency virus 1; test: Antiviral activity against NNRTI-resistant HIV-1 LAI harboring reverse transcriptase K103N mutant infected in human MT4 cells assessed as inhibition of viral replication after 5 days by MTT assay; type: functional, organism-based; details: Human immunodeficiency virus 1, LAI, MT4, 120 h
[2] = system: Human immunodeficiency virus 1; test: Antiviral activity against wild type HIV-1 LAI infected in human MT4 cells assessed as inhibition of viral replication after 5 days by MTT assay in presence of 40% human serum; type: functional, organism-based; details: Human immunodeficiency virus 1, LAI, MT4, 120 h
[3] = target: Human immunodeficiency virus type 1 reverse transcriptase (Human immunodeficiency virus 1, UniProt Q72547); test: Inhibition of polymerase activity of wild type HIV-1 LAI reverse transcriptase
[4] = system: Human immunodeficiency virus 1; test: Antiviral activity against wild type HIV-1 LAI infected in human MT4 cells assessed as inhibition of viral replication after 5 days by MTT assay; type: functional, organism-based; details: Human immunodeficiency virus 1, LAI, MT4, 120 h
[5] = system: Human immunodeficiency virus 1; test: Antiviral activity against NNRTI-resistant HIV-1 LAI harboring reverse transcriptase Y181C mutant infected in human MT4 cells assessed as inhibition of viral replication after 5 days by MTT assay; type: functional, organism-based; details: Human immunodeficiency virus 1, LAI, MT4, 120 h
[6] = target: Human immunodeficiency virus type 1 reverse transcriptase (Human immunodeficiency virus 1, UniProt Q72547, Y181C); test: Inhibition of polymerase activity of NNRTI-resistant HIV-1 LAI reverse transcriptase Y181C mutant
[7] = target: Human immunodeficiency virus type 1 reverse transcriptase (Human immunodeficiency virus 1, UniProt Q72547, K103N); test: Inhibition of polymerase activity of NNRTI-resistant HIV-1 LAI reverse transcriptase K103N mutant
[8] = system: Human immunodeficiency virus 1; test: Antiviral activity against wild type HIV-1 LAI infected in human MT4 cells assessed as protection against virus-induced cell death after 5 days by MTT assay; type: functional, organism-based; details: Human immunodeficiency virus 1, LAI, MT4, 120 h
[9] = system: Human immunodeficiency virus 1; test: Potency index, ratio of efavirenz IC50 to compound IC50 for wild type HIV-1 LAI in presence of 40% human serum; type: functional

| SMILES | IC50 [1] [nM] | IC50 [2] [nM] | IC50 [3] [nM] | IC50 [4] [nM] | IC50 [5] [nM] | IC50 [6] [nM] | IC50 [7] [nM] | IC50 [8] [nM] | Ratio IC50 [9] |
| --- | --- | --- | --- | --- | --- | --- | --- | --- | --- |
| Cc1[nH]c(=O)c(Cl)c(Oc2cc(Cl)cc(C#N)c2)c1CCOc1ccccc1 | 24 | 13 | 6 | 4 | 11 | 6 | 5 |  |  |
| N#Cc1cc(Cl)cc(Oc2c(CCOc3cccnc3)c[nH]c(=O)c2Br)c1 |  |  | 11 |  |  | 8 | 16 |  |  |
| N#Cc1cc(Cl)cc(Oc2cc(CCc3cccc(Cl)c3)[nH]c(=O)c2Cl)c1 |  |  | 12 |  |  | 7 | 6 |  |  |
| N#Cc1cc(Cl)cc(Oc2cc(CCc3cccnc3)[nH]c(=O)c2Cl)c1 |  |  | 22 |  |  | 22 | 16 |  |  |
| N#Cc1cc(Cl)cc(Oc2cc(CCc3nc4ccccc4o3)[nH]c(=O)c2Cl)c1 |  |  | 6 |  |  | 4 | 16 |  |  |
| N#Cc1cc(Cl)cc(Oc2c(F)c(CC(=O)N3CCc4ccccc4C3)[nH]c(=O)c2Br)c1 |  |  | 12 |  |  |  |  | 50 |  |
| N#Cc1cc(Cl)cc(Oc2c(F)c(CCc3ccccc3)[nH]c(=O)c2Cl)c1 |  |  | 7 |  |  |  |  |  |  |
| CN(C)c1c(Oc2cc(Cl)cc(C#N)c2)cc(CC(=O)N2CCc3ccccc3C2)[nH]c1=O |  |  | 220 |  |  |  |  | 35 |  |
| N#Cc1cc(Cl)cc(Oc2cc(CCc3ccncc3)[nH]c(=O)c2Cl)c1 |  |  | 19 |  |  | 21 | 14 |  |  |
| Cc1[nH]c(=O)c(Cl)c(Oc2cc(Cl)cc(C#N)c2)c1CCCc1ccncc1 |  | 5 | 4 | 2 | 6 | 3 | 2 |  | 3 |
| N#Cc1cc(Cl)cc(Oc2c(Cc3ccccc3)c[nH]c(=O)c2Br)c1 |  |  | 34 |  |  | 41 | 71 |  |  |
| N#Cc1cc(Cl)cc(Oc2cc(CCc3ccccn3)[nH]c(=O)c2Cl)c1 |  |  | 21 |  |  | 33 | 78 |  |  |
| N#Cc1cc(Cl)cc(Oc2c(F)c(CCc3cccc(Cl)c3)[nH]c(=O)c2Br)c1 |  |  | 17 |  |  | 8 | 8 |  |  |
| N#Cc1cc(Cl)cc(Oc2cc(CCc3ccccc3)[nH]c(=O)c2Cl)c1 |  |  | 8 |  |  |  |  |  |  |
| Cc1[nH]c(=O)c(Br)c(Oc2cc(Cl)cc(C#N)c2)c1Cc1ccccc1 | 16 | 32 | 10 | 6 | 29 | 8 | 7 |  |  |
| N#Cc1cc(Cl)cc(Oc2c(COCc3ccncc3)c[nH]c(=O)c2Br)c1 | 13 | 10 | 21 | 7 | 19 | 11 | 13 |  |  |
| N#Cc1cc(Cl)cc(Oc2cc(CC(=O)N3CCc4ccccc4C3)[nH]c(=O)c2Cl)c1 |  |  | 30 |  |  |  |  | 35 |  |
| O=C1Nc2ccc(Cl)cc2[C@@](C#CC2CC2)(C(F)(F)F)O1 [EFAVIRENZ] | 65 |  |  |  | 3 |  |  |  |  |
| N#Cc1cc(Cl)cc(Oc2c(F)c(CCc3ccncc3)[nH]c(=O)c2Br)c1 |  | 23 | 2 | 5 | 11 | 1 | 1 |  |  |
| N#Cc1cc(Cl)cc(Oc2c(CCOc3ccncc3)c[nH]c(=O)c2Br)c1 |  |  | 10 |  |  | 8 | 14 |  |  |
